Where two headings read alike, the source gives them in different places.

One data set concerns the target T1, human GLP-1 receptor (Homo sapiens, UniProt P43220).
T1 construct: expressed in transfected cells; host or cells: membrane preparation from BHK cells, clone FCW467-12A (parent line BHKTS13)
Briefly: GLP-1 receptor binding: competitive binding assay (125I-GLP-1, SPA) on isolated membranes at low and high HSA. The note with it: High HSA IC50 (nM), high HSA (2.0% final assay concentration).

Data set [1] in a line: Pharmacokinetic study in minipigs (i.v.). The note with it: male, Göttingen, minipig, in vivo, iv, minipigs, i.v., harmonic mean, read-out: Terminal half-live (converted). The method, then:
The derivatives of Examples 12, 14, and 15 were dosed 2 nmol/kg. The derivatives of Examples 1 and 2 were dosed 15 nmol/kg.

T1 sequence (P43220 24-463): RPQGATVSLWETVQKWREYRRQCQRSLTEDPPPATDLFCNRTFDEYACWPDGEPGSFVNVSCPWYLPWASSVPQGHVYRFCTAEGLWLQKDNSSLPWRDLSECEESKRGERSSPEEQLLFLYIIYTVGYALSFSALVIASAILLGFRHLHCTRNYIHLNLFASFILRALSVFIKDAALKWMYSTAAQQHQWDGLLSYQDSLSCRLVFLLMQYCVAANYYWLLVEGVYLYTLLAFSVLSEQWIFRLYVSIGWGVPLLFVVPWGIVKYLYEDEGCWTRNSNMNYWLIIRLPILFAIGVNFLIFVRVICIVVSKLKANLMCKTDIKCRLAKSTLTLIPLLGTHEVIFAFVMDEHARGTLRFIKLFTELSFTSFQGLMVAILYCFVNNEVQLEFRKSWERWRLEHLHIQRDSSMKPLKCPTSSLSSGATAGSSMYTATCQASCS
Protocol for human GLP-1 receptor: The purpose of this example is to test the receptor binding of the GLP-1 derivatives in vitro. The receptor binding is a measure of affinity of a derivative for the human GLP-1 receptor.
Each derivative is added in a series of concentrations to isolated membranes containing the human GLP-1 receptor and displacement of the labelled ligand is monitored. The receptor binding is reported as the concentration at which half of the labelled ligand is displaced from the receptor, the IC50 value.
Buffer 1 consisted of 20 mM Na-HEPES plus 10 mM EDTA and pH was adjusted to 7.4. Buffer 2 consisted of 20 mM Na-HEPES plus 0.1 mM EDTA and pH was adjusted to 7.4. Assay buffer consisted of 50 mM HEPES supplemented with 5 mM EGTA, 5 mM MgCl2, 0.005% Tween 20 and pH was adjusted to 7.4. An 8% albumin stock consisted of HSA dissolved at 8% (w/v) in assay buffer. An 0.02% albumin stock consisted of HSA dissolved at 0.02% (w/v) in assay buffer.
The cells express the human GLP-1 receptor.
The cells were grown at 5% CO2 in DMEM, 10% fetal calf serum, 1% Pen/Strep (Penicillin/Streptomycin) and 1.0 mg/ml of the selection marker G418.
To make a membrane preparation the cells were grown to approximately 80% confluence. The cells were washed twice in phosphate-buffered saline and harvested. The cells were pelleted using a brief centrifugation and the cell pellet was kept on ice. […] The homogenate was centrifuged for 15 minutes. The pellet was re-suspended (homogenised) in 10 ml buffer 2 and centrifuged. This step was repeated once more. The resulting pellet was re-suspended in buffer 2 and the protein concentration was determined. The membranes were aliquoted and stored at minus 80° C.
For the receptor binding assay in the presence of low HSA (0.005%) 50 μl of the assay buffer was added to each well of an assay plate.
For the receptor binding assay in the presence of high HSA (2%) 50 μl of the 8% albumin stock was added to each well of an assay plate.
Cell membrane aliquots were thawed and diluted to their working concentration. Fifty μl were added to each well in the assay plate.
WGA SPA beads were suspended in assay buffer at 20 mg/ml. The suspension was diluted to 10 mg/ml in assay buffer just prior to addition to the assay plate. Fifty μl were added to each well in the assay plate.
A 25 μl aliquot was reserved for measuring total counts/well.
The assay plate was incubated for 2 h at 30° C.
The assay plate was centrifuged for 10 min.
The assay plate was read in a Packard TopCount NXT instrument.
The data from the TopCount instrument were transferred to Graph Pad Prism software. Individual replicates were analysed using non-linear regression. IC50 values were calculated by the software and reported in nM. The reported values are averages of all of the measured values for each compound.

On human GLP-1 receptor, `CC[C@H](C)[C@H](NC(=O)[C@H](Cc1ccccc1)NC(=O)[C@H](CCC(=O)O)NC(=O)[C@H](CCCNC(=N)N)NC(=O)[C@H](C)NC(=O)[C@H](C)NC(=O)[C@H](CCC(N)=O)NC(=O)[C@H](CCC(=O)O)NC(=O)[C@H](CCC(=O)O)NC(=O)[C@H](CC(C)C)NC(=O)[C@H](Cc1ccc(O)cc1)NC(=O)[C@H](CO)NC(=O)[C@H](CO)NC(=O)[C@@H](NC(=O)[C@H](CC(=O)O)NC(=O)[C@H](CO)NC(=O)[C@@H](NC(=O)[C@H](Cc1ccccc1)NC(=O)[C@@H](NC(=O)CNC(=O)[C@H](CCC(=O)O)NC(=O)C(C)(C)NC(=O)[C@@H](N)Cc1c[nH]cn1)[C@@H](C)O)[C@@H](C)O)C(C)C)C(=O)N[C@@H](C)C(=O)N[C@@H](Cc1c[nH]c2ccccc12)C(=O)N[C@@H](CC(C)C)C(=O)N[C@H](C(=O)N[C@@H](CCCNC(=N)N)C(=O)NCC(=O)N[C@@H](CCCNC(=N)N)C(=O)N[C@@H](CCCCNC(=O)[C@@H](N)CCCCNC(=O)[C@@H](N)CCCCNC(=O)[C@H](CCCCNC(=O)CC[C@H](NC(=O)[C@H]1CC[C@H](CNC(=O)CCCCCCCCCCCCCCCCCCC(=O)O)CC1)C(=O)O)NC(=O)CC[C@H](NC(=O)[C@H]1CC[C@H](CNC(=O)CCCCCCCCCCCCCCCCCCC(=O)O)CC1)C(=O)O)C(=O)O)C(C)C` [Example 9, N{Epsilon-37}-[(2S)-2-amino-6-[[(2S)-2-amino-6-[[(2S)-2,6-bis[[(4S)-4-carboxy-4-[[4-[(19-carboxynonadecanoylamino)methyl]cyclohexanecarbonyl]amino]butanoyl]amino]hexanoyl]amino]hexanoyl]amino]hexanoyl]-[Aib8,Glu22,Arg26,Arg34,Lys37]-GLP-1-(7-37)-peptide] returned an IC50 of 150 nM. This counts as sub-micromolar. For `CC[C@H](C)[C@H](NC(=O)[C@H](Cc1ccccc1)NC(=O)[C@H](CCC(=O)O)NC(=O)[C@H](CCCNC(=N)N)NC(=O)[C@H](C)NC(=O)[C@H](C)NC(=O)[C@H](CCC(N)=O)NC(=O)[C@H](CCC(=O)O)NC(=O)[C@H](CCC(=O)O)NC(=O)[C@H](CC(C)C)NC(=O)[C@H](Cc1ccc(O)cc1)NC(=O)[C@H](CO)NC(=O)[C@H](CO)NC(=O)[C@@H](NC(=O)[C@H](CC(=O)O)NC(=O)[C@H](CO)NC(=O)[C@@H](NC(=O)[C@H](Cc1ccccc1)NC(=O)[C@@H](NC(=O)CNC(=O)[C@H](CCC(=O)O)NC(=O)C(C)(C)NC(=O)[C@@H](N)Cc1c[nH]cn1)[C@@H](C)O)[C@@H](C)O)C(C)C)C(=O)N[C@@H](C)C(=O)N[C@@H](Cc1c[nH]c2ccccc12)C(=O)N[C@@H](CC(C)C)C(=O)N[C@H](C(=O)N[C@@H](CCCNC(=N)N)C(=O)NCC(=O)N[C@@H](CCCNC(=N)N)C(=O)N[C@@H](CCCCNC(=O)COCCOCCNC(=O)COCCOCCNC(=O)COCCOCCNC(=O)COCCOCCNC(=O)COCCOCCNC(=O)COCCOCCNC(=O)COCCOCCNC(=O)COCCOCCNC(=O)[C@H](CCCCNC(=O)CC[C@H](NC(=O)[C@H]1CC[C@H](CNC(=O)CCCCCCCCCCCCCCCCCCC(=O)O)CC1)C(=O)O)NC(=O)CC[C@H](NC(=O)[C@H]1CC[C@H](CNC(=O)CCCCCCCCCCCCCCCCCCC(=O)O)CC1)C(=O)O)C(=O)O)C(C)C` [Example 13], the half-life in data set [1] (5 nmol/kg) is 119 h. As to `CC[C@H](C)[C@H](NC(=O)[C@H](Cc1ccccc1)NC(=O)[C@H](CCC(=O)O)NC(=O)[C@H](CCCNC(=N)N)NC(=O)[C@H](C)NC(=O)[C@H](C)NC(=O)[C@H](CCC(N)=O)NC(=O)[C@H](CCC(=O)O)NC(=O)[C@H](CCC(=O)O)NC(=O)[C@H](CC(C)C)NC(=O)[C@H](Cc1ccc(O)cc1)NC(=O)[C@H](CO)NC(=O)[C@H](CO)NC(=O)[C@@H](NC(=O)[C@H](CC(=O)O)NC(=O)[C@H](CO)NC(=O)[C@@H](NC(=O)[C@H](Cc1ccccc1)NC(=O)[C@@H](NC(=O)CNC(=O)[C@H](CCC(=O)O)NC(=O)C(C)(C)NC(=O)[C@@H](N)Cc1c[nH]cn1)[C@@H](C)O)[C@@H](C)O)C(C)C)C(=O)N[C@@H](C)C(=O)N[C@@H](Cc1c[nH]c2ccccc12)C(=O)N[C@@H](CC(C)C)C(=O)N[C@H](C(=O)N[C@@H](CCCNC(=N)N)C(=O)NCC(=O)N[C@@H](CCCNC(=N)N)C(=O)N[C@@H](CCCCNC(=O)COCCOCCNC(=O)COCCOCCNC(=O)[C@H](CCCCNC(=O)COCCOCCNC(=O)COCCOCCNC(=O)COCCOCCNC(=O)COCCOCCNC(=O)CC[C@H](NC(=O)[C@H]1CC[C@H](CNC(=O)CCCCCCCCCCCCCCCCCCC(=O)O)CC1)C(=O)O)NC(=O)COCCOCCNC(=O)COCCOCCNC(=O)COCCOCCNC(=O)COCCOCCNC(=O)CC[C@H](NC(=O)[C@H]1CC[C@H](CNC(=O)CCCCCCCCCCCCCCCCCCC(=O)O)CC1)C(=O)O)C(=O)O)C(C)C` [Example 14], the half-life in data set [1] (2 nmol/kg) was 135 h. Take `CC[C@H](C)[C@H](NC(=O)[C@H](Cc1ccccc1)NC(=O)[C@H](CCC(=O)O)NC(=O)[C@H](CCCNC(=N)N)NC(=O)[C@H](C)NC(=O)[C@H](C)NC(=O)[C@H](CCC(N)=O)NC(=O)[C@H](CCC(=O)O)NC(=O)[C@H](CCC(=O)O)NC(=O)[C@H](CC(C)C)NC(=O)[C@H](Cc1ccc(O)cc1)NC(=O)[C@H](CO)NC(=O)[C@H](CO)NC(=O)[C@@H](NC(=O)[C@H](CC(=O)O)NC(=O)[C@H](CO)NC(=O)[C@@H](NC(=O)[C@H](Cc1ccccc1)NC(=O)[C@@H](NC(=O)CNC(=O)[C@H](CCC(=O)O)NC(=O)C(C)(C)NC(=O)[C@@H](N)Cc1c[nH]cn1)[C@@H](C)O)[C@@H](C)O)C(C)C)C(=O)N[C@@H](C)C(=O)N[C@@H](Cc1c[nH]c2ccccc12)C(=O)N[C@@H](CC(C)C)C(=O)N[C@H](C(=O)N[C@@H](CCCNC(=N)N)C(=O)NCC(=O)N[C@@H](CCCNC(=N)N)C(=O)N[C@@H](CCCCNC(=O)COCCOCCNC(=O)COCCOCCNC(=O)COCCOCCNC(=O)COCCOCCNC(=O)[C@H](CCCCNC(=O)COCCOCCNC(=O)COCCOCCNC(=O)CC[C@H](NC(=O)[C@H]1CC[C@H](CNC(=O)CCCCCCCCCCCCCCCCCCC(=O)O)CC1)C(=O)O)NC(=O)COCCOCCNC(=O)COCCOCCNC(=O)CC[C@H](NC(=O)[C@H]1CC[C@H](CNC(=O)CCCCCCCCCCCCCCCCCCC(=O)O)CC1)C(=O)O)C(=O)O)C(C)C` [Example 15]: the half-life in data set [1] (2 nmol/kg) is 142 h.

The values above are taken from US10392428B2, “GLP-1 derivatives and uses thereof” (Novo Nordisk A/S, priority 2014, dated 2019).
